# Target: T1, biotinylated Aβ1-42 (Homo sapiens, UniProt P05067)
# T1 construct: To assure monomerisation of biotinylated Aβ1-42 (Anaspec #23523-0.5) the peptide was thoroughly monomerised; purchased Anaspec 23523-0.5
# Assay: Inhibition of Abeta oligomerisation (biotinylated Aβ1-42, neutravidin plate, streptavidin-HRP)
# Assay type: biochemical
# Settings: inhibition of Aβ1-42 aggregation, approximately 12 nM Aβ1-42, PBS pH 7.4, 2% DMSO, 30 min RT
# T1 sequence (P05067 672-713 limits assumed): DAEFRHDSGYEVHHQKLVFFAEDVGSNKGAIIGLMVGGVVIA
row,SMILES,IC50 [µM]
1,"Cc1ccc(-c2ccc(-c3cc(CC(=O)O)c(-c4ccc(-c5sc(-c6ccc(-c7ccc(C)cc7C(=O)O)s6)cc5CC(=O)O)s4)s3)s2)c(C(=O)O)c1 [Example 63, 2-{5-[5-(5-{5-[5-(2-Carboxy-4-methylphenyl)thiophen-2-yl]-3-(carboxymethyl)thiophen-2-yl}thiophen-2-yl)-4-(carboxymethy)thiophen-2-yl]thiophen-2-yl}-5-methylbenzoic acid]",1
2,"O=C(O)Cc1cc(-c2cccc(C(=O)O)c2)sc1-c1ccc(-c2sc(-c3cccc(C(=O)O)c3)cc2CC(=O)O)s1 [Example 10, 3-[4-(Carboxymethyl)-5-{5-[3-(carboxymethyl)-5-(3-carboxyphenyl)thiophen-2-yl]thiophen-2-yl}thiophen-2-yl]benzoic acid]",7.94
3,"NCCc1ccsc1-c1ccc(-c2sc(-c3ccc(-c4cc(CCN)c(-c5ccc(-c6sccc6CCN)s5)s4)s3)cc2CCN)s1 [Example 42, 2-(2-{5-[3-(2-Aminoethyl)-5-{5-[4-(2-aminoethyl)-5-{5-[3-(2-aminoethyl)thiophen-2-yl]thiophen-2-yl}thiophen-2-yl]thiophen-2-yl}thiophen-2-yl]thiophen-2-yl}thiophen-3-yl)ethan-1-amine]",0.251
4,"O=C(O)Cc1cc(-c2cccnc2)sc1-c1ccc(-c2sc(-c3ccc(C(=O)O)s3)cc2CC(=O)O)s1 [Example 13, 5-[4-(Carboxymethyl)-5-{5-[3-(carboxymethyl)-5-(pyridin-3-yl)thiophen-2-yl]thiophen-2-yl}thiophen-2-yl]thiophene-2-carboxylic acid]",7.94
5,"O=C(O)Cc1cc(Cl)sc1-c1ccc(-c2sc(-c3ccc(-c4cc(CC(=O)O)c(-c5ccc(-c6sc(Cl)cc6CC(=O)O)s5)s4)s3)cc2CC(=O)O)s1 [Example 58, 2-(2-{5-[3-(Carboxymethyl)-5-{5-[4-(carboxymethyl)-5-{5-[3-(carboxymethyl)-5-chlorothiophen-2-yl]thiophen-2-yl}thiophen-2-yl]thiophen-2-yl}thiophen-2-yl]thiophen-2-yl}-5-chlorothiophen-3-yl)acetic acid]",0.398
6,O=C(O)/C=C/c1ccc(-c2cc(CC(=O)O)c(-c3ccc(-c4sc(-c5ccc(/C=C/C(=O)O)s5)cc4CC(=O)O)s3)s2)s1 [Example 64],2.51
7,"O=C(O)Cc1cc(-c2ccc(-c3ccccc3C(=O)O)s2)sc1-c1ccc(-c2sc(-c3ccc(-c4ccccc4C(=O)O)s3)cc2CC(=O)O)s1 [Example 43, 2-{5-[4-(Carboxymethyl)-5-{5-[3-(carboxymethyl)-5-[5-(2-carboxyphenyl)thiophen-2-yl]thiophen-2-yl]thiophen-2-yl}thiophen-2-yl]thiophen-2-yl}benzoic acid]",3.98
8,"O=C(O)Cc1cc(-c2ccc(-c3ccc(C(=O)O)cc3)s2)sc1-c1ccc(-c2sc(-c3ccc(-c4ccc(C(=O)O)cc4)s3)cc2CC(=O)O)s1 [Example 19, 4-{5-[4-(Carboxymethyl)-5-{5-[3-(carboxymethyl)-5-[5-(4-carboxyphenyl)thiophen-2-yl]thiothiophen-2-yl]thiophen-2-yl}thiophen-2-yl]thiophen-2-yl}benzoic acid]",3.98
9,"CS(=O)(=O)c1ccc(-c2sc(-c3ccc(-c4cc(CC(=O)O)c(-c5ccc(S(C)(=O)=O)cc5)s4)cc3)cc2CC(=O)O)cc1 [Example 37, 2-(5-{4-[4-(Carboxymethyl)-5-(4-methanesulfonylphenyl)thiophen-2-yl]phenyl}-2-(4-methanesulfonylphenyl)thiophen-3-yl)acetic acid]",5.01
10,"Cn1nc(C(F)(F)F)cc1-c1cc(CC(=O)O)c(-c2ccc(-c3sc(-c4cc(C(F)(F)F)nn4C)cc3CC(=O)O)s2)s1 [Example 77, 2-(2-{5-[3-(Carboxymethyl)-5-[1-methyl-3-(trifluoromethyl)-1H-pyrazol-5-yl]thiophen-2-yl]thiophen-2-yl}-5-[1-methyl-3-(trifluoromethyl)-1H-pyrazol-5-yl]thiophen-3-yl)acetic acid]",5.01
11,"C#Cc1cc(CC(=O)O)c(-c2ccc(-c3sc(C#C)cc3CC(=O)O)s2)s1 [Example 86, 2-(2-{5-[3-(Carboxymethyl)-5-ethynylthiophen-2-yl]thiophen-2-yl}-5-ethynylthiophen-3-yl)acetic acid]",20
12,"O=C(O)CCc1cc(-c2ccc(C(=O)O)s2)sc1-c1ccc(-c2sc(-c3ccc(C(=O)O)s3)cc2CCC(=O)O)s1 [Example 53, 5-[4-(2-Carboxethyl)-5-{5-[3-(2-carboxyethyl)-5-(5-carboxythiophen-2-yl)thiophen-2-yl]thiophen-2-yl}thiophen-2-yl]thiophene-2-carboxylic acid]",3.98
13,"O=C(O)Cc1cc(-c2cc(CC(=O)O)c(-c3ccc(-c4cccc(C(=O)O)c4)s3)s2)sc1-c1ccc(-c2cccc(C(=O)O)c2)s1 [Example 66, 3-{5-[3-(Carboxymethyl)-5-[4-(carboxymethyl)-5-[5-(3-carboxyphenyl)thiophen-2-yl]thiophen-2-yl]thiophen-2-yl]thiophen-2-yl}benzoic acid]",5.01
14,"O=C(O)Cc1cc(-c2ccc(-c3cc(CC(=O)O)c(-c4ccc(-c5cccc(C(=O)O)c5)s4)s3)s2)sc1-c1ccc(-c2cccc(C(=O)O)c2)s1 [Example 65, 3-{5-[3-(Carboxymethyl)-5-{5-[4-(carboxymethyl)-5-[5-(3-carboxyphenyl)thiophen-2-yl]thiophen-2-yl]thiophen-2-yl}thiophen-2-yl]thiophen-2-yl}thiophen-2-benzoic acid]",0.631
15,"O=C(O)Cc1ccsc1-c1ccc(-c2cc(CC(=O)O)c(-c3ccc(-c4sc(-c5ccc(-c6sccc6CC(=O)O)s5)cc4CC(=O)O)s3)s2)s1 [Example 84, 2-(2-{5-[3-(Carboxymethyl)-5-{5-[3-(carboxymethyl)thiophen-2-yl]thiophen-2-yl}thiophen-2-yl]thiophen-2-yl}-5-{5-[3-(carboxymethyl)thiophen-2-yl]thiophen-2-yl}thiophen-3-yl)acetic acid]",1.58
16,"O=C(O)Cc1cc(-c2ccc(-c3cc(CC(=O)O)c(-c4ccc(-c5ccc(C(=O)O)cc5)s4)s3)s2)sc1-c1ccc(-c2ccc(C(=O)O)cc2)s1 [Example 54, 4-{5-[3-(Carboxymethyl)-5-{5-[4-(carboxymethyl)-5-[5-(4-carboxyphenyl)thiophen-2-yl]thiophen-2-yl]thiophen-2-yl}thiophen-2-yl]thiophen-2-yl}benzoic acid]",1.26
17,"N#Cc1cccc(-c2cc(CC(=O)O)c(-c3ccc(-c4sc(-c5cccc(C#N)c5)cc4CC(=O)O)s3)s2)c1 [Example 83, 2-(2-{5-[3-(Carboxymethyl)-5-(3-cyanophenyl)thiophen-2-yl]thiophen-2-yl}-5-(3-cyanophenyl)thiophen-3-yl)acetic acid]",12.6
18,"O=C(O)Cc1cc(-c2cccc(C(=O)O)c2)sc1-c1ccc(-c2sc(-c3ccc(C(=O)O)s3)cc2CC(=O)O)s1 [Example 14, 5-[4-(Carboxymethyl)-5-{5-[3-(carboxymethyl)-5-(3-carboxyphenyl)thiophen-2-yl]thiophen-2-yl}thiophen-2-yl]thiophene-2-carboxylic acid]",2
19,"CS(=O)(=O)c1ccc(-c2cc(CCN)c(-c3ccc(-c4sc(-c5ccc(S(C)(=O)=O)cc5)cc4CCN)s3)s2)cc1 [Example 41, 2-(2-{5-[3-(2-Aminoethyl)-5-(4-methanesulfonylphenyl)thiophen-2-yl]thiophen-2-yl}-5-(4-methanesulfonylphenyl)thiophen-3-yl)ethan-1-amine]",0.794
